The source of these data is patent US20220289685A1, “ANTIMALARIAL HEXAHYDROPYRIMIDINE ANALOGUES” (UCB BIOPHARMA SRL, priority 2019, published 2022).

Molecules are shown by their SMILES. Where a name gives a salt, the structure may show the parent alone.

The subject of the first assay is Plasmodium falciparum 3D7 strain. Briefly: P. falciparum 3D7 asexual blood stage assay (SYBR green readout). The class given is cell-based. Conditions: Plasmodium falciparum, 3D7, Erythrocyte, 72 h. Here is the method: Asexual Blood Stage Assay
The assay used to measure the effect of test compounds on a bloodstream stage of Plasmodium falciparum: 3D7 strain employs SYBR green as the readout. This is a dye that binds to double stranded deoxyribonucleic acid (DNA) with a resulting increase in fluorescence, allowing detection of P. falciparum DNA in infected erythrocytes, and thereby providing a measure of parasite growth and propagation.
P. falciparum Culture Maintenance
Erythrocytes (A+ blood) were prepared for both parasite culture and assay by washing 4 times with incomplete media (15.9 g RPMI 1640 (25 mM HEPES, L-glutamine), 1 g NaHCO3, 2 g glucose, 400 μL gentacin (500 mg/mL), 2 mL hypoxanthine solution (13.6 g/L in 0.1M NaOH pH 7.3) in 1 litre of media). The cells were centrifuged at 1800 g for 5 minutes, before decanting the supernatant and re-suspending in fresh incomplete media. On the final wash, the cells were re-suspended in complete media (incomplete media with 5 g/L AlbumaxII), and centrifuged at 1800 g for 3 minutes. This cell sediment was treated as 100% haematocrit.
P. falciparum 3D7 was cultured in erythrocytes at 5% haematocrit in complete media at 37° C. (1% O2, 3% CO2, balance N2). Cultures were split on a weekly basis to achieve a 1% parasitaemia in erythrocites at 5% haematocrit in fresh media. Culture media is replaced by fresh media every other day (2 times during the week).
On day 1, test compounds were added to assay plates using Echo dispensing technology ([…] and 20 points titration). 50 nL of each compound dilution was added to 50 μL of culture (5% haematocrit, 0.5% parasitaemia) and incubated for 72 h at 37° C. (1% O2, 3% CO2, balance N2). Final concentrations of test compounds ranged from 50,000 nM to 15 nM, in […].
On day 4, 10 μL SYBR green (Invitrogen S7563 supplied as 10,000× concentrate in DMSO) pre-diluted to 3× concentrate with Lysis buffer (20 mM Tris pH 7.9, 5% EDTA, 0.16% w/v, 1.6% TX100 v/v) was added to the cultures and incubated in the dark, overnight, at room temperature.
On day 5, fluorescent signal was measured using a BioTek plate reader (excitation 485 nm, emission 528 nm). All data were processed using IDBS ActivityBase. Raw data were converted into percent inhibition through linear regression by setting the high inhibition control (mefloquine) as 100% and the no inhibition control (DMSO) as 0%. Quality control criteria for passing plates were as follows: Z′>0.5, S:B>3, 30% CV(no inhibition control)<15. The formula used to calculate Z′ is: […]
All EC50 curve fitting was undertaken using the following bi-phasic two site dose response using XLfit model 300 (IDBS):
where A=100 minus the top of the upper curve 1 and the bottom of lower curve; B=Hill slope; log(C)=IC50 concentration at lower site; log(D)=IC50 concentration at upper site; x=inhibitor concentration; and y=% inhibition.
Regarding `C[C@@H]1C[C@H](N2C(=N)N[C@](C)(c3cccc(NC(=O)c4ccc(C#N)o4)c3Cl)CC2=O)CCO1` (relative stereo) [Example 115, N-(2-Chloro-3-{(4S)-2-imino-4-methyl-1-[(2R*,4R*)-2-methyl-tetrahydropyran-4-yl]-6-oxo-hexahydropyrimidin-4-yl]phenyl)-5-cyanofuran-2-carboxamide trifluoroacetic acid salt], inhibition was half-maximal at 18 nM (IC50). On the same count and under the same terms, the value for `Cc1ccncc1C(=O)Nc1cccc([C@]2(C)CC(=O)N([C@@H]3CCO[C@H](C)C3)C(=N)N2)c1Cl` (relative stereo) [Example 82, N-(2-Chloro-3-{(4S)-2-imino-4-methyl-1-[(2R*,4R*)-2-methyl-tetrahydropyran-4-yl]-6-oxo-hexahydropyrimidin-4-yl}phenyl)-4-methylpyridine-3-carboxamide trifluoroacetic acid salt] was 35 nM; that for `C[C@@H]1C[C@H](N2C(=N)N[C@](C)(c3cccc(NC(=O)c4cncc(C#N)c4)c3Cl)CC2=O)CCO1` (relative stereo) [Example 74, N-(2-Chloro-3-{(4S)-2-imino-4-methyl-1-[(2R*,4R*)-2-methyl-tetrahydropyran-4-yl]-6-oxo-hexahydropyrimidin-4-yl}phenyl)-5-cyanopyridine-3-carboxamide hydrochloride] was 109 nM. On the same count and under the same terms, the value for `C[C@@H]1C[C@H](N2C(=N)N[C@](C)(c3cccc(NC(=O)c4cnccc4F)c3Cl)CC2=O)CCO1` (relative stereo) [Example 96, N-(2-Chloro-3-{(4S)-2-imino-4-methyl-1-[(2R*,4R*)-2-methyl-tetrahydropyran-4-yl]-6-oxo-hexahydropyrimidin-4-yl}phenyl)-4-fluoropyridine-3-carboxamide hydrochloride] was 565 nM; that for `C[C@@H]1C[C@H](N2C(=N)N[C@](C)(c3cccc(NC(=O)c4cncc(N(C)C)n4)c3Cl)CC2=O)CCO1` (relative stereo) [Example 91, N-(2-Chloro-3-{(4S)-2-imino-4-methyl-1-[(2R*,4R*)-2-methyl-tetrahydropyran-4-yl]-6-oxo-hexahydropyrimidin-4-yl]phenyl)-6-(dimethylamino)pyrazine-2-carboxamide hydrochloride] was 116 nM; that for `C[C@@H]1C[C@H](N2C(=N)N[C@](C)(c3cccc(NC(=O)c4cc(Cl)c(F)cc4F)c3Cl)CC2=O)CCO1` (relative stereo) [Example 69, 5-Chloro-N-(2-chloro-3-{(4S)-2-imino-4-methyl-1-[(2R*,4R*)-2-methyltetrahydropyran-4-yl]-6-oxo-hexahydropyrimidin-4-yl}phenyl)-2,4-difluorobenzamide hydrochloride] was 25 nM. Still for that read-out and setting: as for `COc1ccc(S(C)(=O)=O)cc1C(=O)Nc1cccc([C@]2(C)CC(=O)N([C@@H]3CCO[C@H](C)C3)C(=N)N2)c1Cl` (relative stereo) [Example 85, N-(2-Chloro-3-{(4S)-2-imino-4-methyl-1-[(2R*,4R*)-2-methyl-tetrahydropyran-4-yl]-6-oxo-hexahydropyrimidin-4-yl}phenyl)-2-methoxy-5-(methylsulfonyl)-benzamide trifluoroacetic acid salt], the figure is 76 nM; as for `C[C@@H]1CC(N2C(=N)N[C@](C)(c3cccc(NC(=O)c4cc(Cl)ccc4OC(F)F)c3Cl)CC2=O)CCO1` (relative stereo) [Example 84, 5-Chloro-N-(2-chloro-3-{(4S)-2-imino-4-methyl-1-[(2R*,4R*)-2-methyltetrahydropyran-4-yl]-6-oxo-hexahydropyrimidin-4-yl]phenyl)-2-(difluoromethoxy)benzamide trifluoroacetic acid salt], 37 nM; as for `C[C@@H]1C[C@H](N2C(=N)N[C@](C)(c3cccc(NC(=O)c4cnc5cccnc5c4)c3Cl)CC2=O)CCO1` (relative stereo) [Example 52, N-(2-Chloro-3-{(4S)-2-imino-4-methyl-1-[(2R*,4R*)-2-methyl-tetrahydropyran-4-yl]-6-oxo-hexahydropyrimidin-4-yl}phenyl)-1,5-naphthyridine-3-carboxamide trifluoroacetic acid salt], 115 nM. Take `C[C@@H]1C[C@H](N2C(=N)N[C@](C)(c3cccc(NC(=O)c4cccc(C#N)c4)c3Cl)CC2=O)CCO1` (relative stereo) [Example 20, N-(2-Chloro-3-{(4S)-2-imino-4-methyl-1-[(2R*,4R*)-2-methyl-tetrahydropyran-4-yl]-6-oxo-hexahydropyrimidin-4-yl}phenyl)-3-cyanobenzamide hydrochloride]: inhibition was half-maximal at 8 nM (IC50). With `C[C@@H]1C[C@H](N2C(=N)N[C@](C)(c3cccc(NC(=O)c4cncc(F)c4)c3Cl)CC2=O)CCO1` (relative stereo) [Example 40, N-(2-Chloro-3-{(4S)-2-imino-4-methyl-1-[(2R*,4R*)-2-methyl-tetrahydropyran-4-yl]-6-oxo-hexahydropyrimidin-4-yl]phenyl)-5-fluoropyridine-3-carboxamide trifluoroacetic acid salt], half-maximal inhibition (IC50) required 34 nM. Same read-out and setting: the value for `C[C@@H]1C[C@H](N2C(=N)N[C@](C)(c3cccc(NC(=O)c4cc(N5CCOCC5)ccn4)c3Cl)CC2=O)CCO1` (relative stereo) [Example 93, N-(2-Chloro-3-{(4S)-2-imino-4-methyl-1-[(2R*,4R*)-2-methyl-tetrahydropyran-4-yl]-6-oxo-hexahydropyrimidin-4-yl]phenyl)-4-(morpholin-4-yl)pyridine-2-carboxamide hydrochloride] was 47 nM. Same read-out and setting: the value for `C[C@@H]1C[C@H](N2C(=N)N[C@](C)(c3cccc(NC(=O)c4nc5ccccc5nc4C(F)(F)F)c3Cl)CC2=O)CCO1` (relative stereo) [Example 88, N-(2-Chloro-3-{(4S)-2-imino-4-methyl-1-[(2R*,4R*)-2-methyl-tetrahydropyran-4-yl]-6-oxo-hexahydropyrimidin-4-yl]phenyl)-3-(trifluoromethyl)quinoxaline-2-carboxamide trifluoroacetic acid salt] was 46 nM; that for `C[C@@H]1C[C@H](N2C(=N)N[C@](C)(c3cccc(NC(=O)c4ccc(OC(F)(F)F)cn4)c3Cl)CC2=O)CCO1` (relative stereo) [Example 47, N-(2-Chloro-3-{(4S)-2-imino-4-methyl-1-[(2R*,4R*)-2-methyl-tetrahydropyran-4-yl]-6-oxo-hexahydropyrimidin-4-yl]phenyl)-5-(trifluoromethoxy)pyridine-2-carboxamide trifluoroacetic acid salt] was 242 nM.

Staying with this assay, now noted: Plasmodium falciparum, Erythrocyte; P. falciparum 3D7 in human erythrocytes, 72 h incubation, SYBR green fluorescence; read-out: IC50.
As for `C[C@@H]1C[C@H](N2C(=N)N[C@](C)(c3cccc(NC(=O)c4ncn5ccccc45)c3Cl)CC2=O)CCO1` (relative stereo) [Example 60, N-(2-Chloro-3-{(4S)-2-imino-4-methyl-1-[(2,R*,4R*)-2-methyl-tetrahydropyran-4-yl]-6-oxo-hexahydropyrimidin-4-yl}phenyl)-imidazo[1,5-a]pyridine-1-carboxamide hydrochloride], the IC50 was determined as 122 nM. On the same count and under the same terms, the value for `C[C@@H]1C[C@H](N2C(=N)N[C@](C)(c3cccc(NC(=O)c4nccn5ccnc45)c3Cl)CC2=O)CCO1` (relative stereo) [Example 48, N-(2-Chloro-3-{(4S)-2-imino-4-methyl-1-[(2R*,4R*)-2-methyl-tetrahydropyran-4-yl]-6-oxo-hexahydropyrimidin-4-yl}phenyl)-imidazo[1,2-alpyrazine-8-carboxamidetrifluoroacetic acid salt] was 55 nM.
